This note sets out measurements from patent publication US9315486B2, “Therapeutic cyclopentanols, compositions thereof, and methods for use thereof” (Allergan, Inc., priority 2013, dated 2016).

Experiment [1] concerns the target T1, EP2 (Homo sapiens, UniProt P43116). Briefly: EP2 cAMP activity study. The experiment is classed as cell-based. The method, then:
(§1) Data from running binding and activity studies on the compounds of the invention were carried out as described in U.S. Pat. No. 7,427,685, the contents of which are incorporated herein by reference.

In the next experiment the target is T2, DP (Homo sapiens, UniProt Q13258).
T2 sequence (Q13258 1-359): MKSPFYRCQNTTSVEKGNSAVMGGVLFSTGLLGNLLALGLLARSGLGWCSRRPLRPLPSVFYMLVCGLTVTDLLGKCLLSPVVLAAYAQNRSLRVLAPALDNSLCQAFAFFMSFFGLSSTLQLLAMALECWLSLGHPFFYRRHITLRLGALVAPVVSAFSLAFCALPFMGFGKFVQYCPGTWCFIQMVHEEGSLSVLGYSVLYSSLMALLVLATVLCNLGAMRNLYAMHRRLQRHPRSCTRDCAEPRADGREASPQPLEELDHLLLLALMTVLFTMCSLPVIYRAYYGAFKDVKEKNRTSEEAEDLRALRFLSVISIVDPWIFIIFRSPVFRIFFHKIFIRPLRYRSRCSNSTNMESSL
As to the kind of experiment: DP activity study. Type of experiment: cell-based. The method, then:
as §1

The target of experiment [2] is T1, EP2. Briefly: EP2 binding study. The method, then: as §1
In a further experiment the target is T3, EP1 (Homo sapiens, UniProt P34995).
T3 sequence (P34995 1-402): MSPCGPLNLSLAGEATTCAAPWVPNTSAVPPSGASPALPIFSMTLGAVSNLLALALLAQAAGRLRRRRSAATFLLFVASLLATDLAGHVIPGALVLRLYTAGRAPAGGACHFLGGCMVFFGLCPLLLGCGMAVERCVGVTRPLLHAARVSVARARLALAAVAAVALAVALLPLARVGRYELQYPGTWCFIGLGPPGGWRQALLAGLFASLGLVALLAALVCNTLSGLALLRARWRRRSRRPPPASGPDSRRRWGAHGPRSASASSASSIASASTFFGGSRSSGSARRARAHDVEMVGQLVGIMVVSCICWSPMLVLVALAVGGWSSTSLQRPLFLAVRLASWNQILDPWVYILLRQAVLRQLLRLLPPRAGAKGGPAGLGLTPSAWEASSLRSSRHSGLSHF
Briefly: EP1 activity study. Type of experiment: cell-based. As for the experimental part: as §1

A further experiment deals with T4, EP3 (Homo sapiens, UniProt P43115).
T4 sequence (P43115 1-390): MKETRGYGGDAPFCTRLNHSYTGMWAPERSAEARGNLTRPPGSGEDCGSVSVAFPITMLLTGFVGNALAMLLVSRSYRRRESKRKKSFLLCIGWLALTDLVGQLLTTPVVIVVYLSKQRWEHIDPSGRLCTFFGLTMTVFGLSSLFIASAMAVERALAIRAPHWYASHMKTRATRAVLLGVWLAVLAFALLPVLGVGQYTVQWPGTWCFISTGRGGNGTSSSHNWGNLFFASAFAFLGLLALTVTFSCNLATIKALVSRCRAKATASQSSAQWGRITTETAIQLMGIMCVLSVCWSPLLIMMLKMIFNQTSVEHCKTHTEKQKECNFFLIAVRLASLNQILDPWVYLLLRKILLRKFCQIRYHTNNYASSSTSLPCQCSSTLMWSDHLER
Briefly: EP3 activity study. The experiment is classed as cell-based. The method, then:
as §1

In experiment [3] the target is T1, EP2. As to the kind of experiment: EP2 Ca2+ signal activity study. Type of experiment: cell-based. The method, then:
as §1

Experiment [4] concerns the target T5, EP4 (Homo sapiens, UniProt P35408). As to the kind of experiment: EP4 binding study. The method, then: as §1
Experiment [5] concerns the target T5, EP4. Briefly: EP4 Ca2+ signal activity study. The experiment is classed as cell-based. The method, then:
as §1

The target in another experiment is T6, TP (Homo sapiens, UniProt P21731).
T6 sequence (P21731 1-343): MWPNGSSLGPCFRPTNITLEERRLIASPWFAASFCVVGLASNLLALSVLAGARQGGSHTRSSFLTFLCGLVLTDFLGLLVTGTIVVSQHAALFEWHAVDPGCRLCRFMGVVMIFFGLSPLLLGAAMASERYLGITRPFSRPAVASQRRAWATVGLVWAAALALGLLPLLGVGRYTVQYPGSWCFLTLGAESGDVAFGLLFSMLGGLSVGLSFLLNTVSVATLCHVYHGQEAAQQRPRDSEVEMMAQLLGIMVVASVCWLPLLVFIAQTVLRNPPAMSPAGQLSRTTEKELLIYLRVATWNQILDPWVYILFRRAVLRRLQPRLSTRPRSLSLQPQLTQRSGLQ
As to the kind of experiment: TP activity study. The experiment is classed as cell-based. As for the experimental part:
as §1

As usually defined, the EC50 is the concentration at which the effect is half-maximal. A high value points to a less potent agent.

T5 sequence (P35408 whole entry): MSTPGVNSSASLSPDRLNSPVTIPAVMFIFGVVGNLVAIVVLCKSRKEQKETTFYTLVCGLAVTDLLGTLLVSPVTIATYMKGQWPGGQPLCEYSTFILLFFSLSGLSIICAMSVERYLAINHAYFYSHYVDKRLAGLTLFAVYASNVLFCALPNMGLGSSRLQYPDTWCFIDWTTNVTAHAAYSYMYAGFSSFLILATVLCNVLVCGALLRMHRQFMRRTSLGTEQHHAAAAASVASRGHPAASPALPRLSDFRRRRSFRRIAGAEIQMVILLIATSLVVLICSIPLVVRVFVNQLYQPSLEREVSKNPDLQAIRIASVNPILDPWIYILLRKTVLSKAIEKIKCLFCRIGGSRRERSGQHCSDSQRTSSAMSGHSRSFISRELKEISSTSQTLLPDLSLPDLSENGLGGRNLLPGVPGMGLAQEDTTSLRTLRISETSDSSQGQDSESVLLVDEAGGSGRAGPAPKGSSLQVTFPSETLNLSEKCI
T1 sequence (P43116 whole entry): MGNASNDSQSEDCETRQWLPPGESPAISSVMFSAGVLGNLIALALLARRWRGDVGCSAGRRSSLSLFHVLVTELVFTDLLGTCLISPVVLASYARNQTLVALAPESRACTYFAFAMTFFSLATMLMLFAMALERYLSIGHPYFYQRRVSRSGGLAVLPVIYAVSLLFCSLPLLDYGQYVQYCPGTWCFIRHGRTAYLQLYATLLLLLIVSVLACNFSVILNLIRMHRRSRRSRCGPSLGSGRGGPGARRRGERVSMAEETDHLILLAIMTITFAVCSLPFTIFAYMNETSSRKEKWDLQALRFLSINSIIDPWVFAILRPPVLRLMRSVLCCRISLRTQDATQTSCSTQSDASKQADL

As to `CCCC(O)CC(O)/C=C/[C@@H]1[C@@H](CCCc2ccc(C(=O)O)s2)[C@H](Cl)C[C@H]1O` (stereo partly shown), the EC50 on EP2 [1] worked out at 3 nM; at DP, 2260 nM; on EP2 [2], 716 nM; at EP1, 1240 nM; at EP3, 690 nM; on EP2 [3] it was 27 nM. Further, the EC50 was found to be 434 nM on EP4 [4], 23 nM on EP4 [5] and 4800 nM at TP.

On to `CCCCC(O)[C@H](O)/C=C/[C@@H]1[C@@H](CCCc2ccc(C(=O)O)s2)[C@H](Cl)C[C@H]1O` (stereo partly shown), for which the EC50 at EP2 [1] was 2.3 nM; at DP, 886 nM; at EP2 [2], 148 nM; at EP2 [3], 9 nM; at EP4 [4], 490 nM; on EP4 [5], 45 nM.

On DP, `C[C@@H](O)CCC[C@H](O)/C=C/[C@@H]1[C@@H](CCCc2ccc(C(=O)O)s2)[C@H](Cl)C[C@H]1O` displayed an EC50 of 6790 nM.

On to `C[C@@H](O)CCCC[C@@H](O)/C=C/[C@@H]1[C@@H](CCCc2ccc(C(=O)O)s2)[C@H](Cl)C[C@H]1O` [5-(3-((1R,2R,3R,5R)-5-chloro-2-((3R,8R,E)-3,8-dihydroxynon-1-en-1-yl)-3-hydroxycyclopentyl)propyl)thiophene-2-carboxylic acid], for which the EC50 was 14 nM at EP2 [1]; 365 nM on EP2 [2]; 4220 nM on EP1; 7140 nM on EP3; 328 nM at EP2 [3]; 3410 nM at EP4 [4]. Besides, the EC50 at EP4 [5] was greater than 10000 nM.

Take `O=C(O)c1ccc(CCC[C@@H]2[C@@H](/C=C/[C@@H](O)CCCCCO)[C@H](O)C[C@H]2Cl)s1`: the EC50 is 0.4 nM on EP2 [1]; 3350 nM on DP; 147 nM on EP2 [2]; 101 nM on EP1; 129 nM at EP3; 4 nM at EP2 [3]. Moreover, the EC50 at EP4 [4] stood at 1130 nM; on EP4 [5] it was 68 nM; on TP, 7570 nM.

`C[C@@H](O)CCCC[C@H](O)/C=C/[C@@H]1[C@@H](CCCc2ccc(C(=O)O)s2)[C@H](Cl)C[C@H]1O` [5-(3-((1R,2R,3R,5R)-5-Chloro-2-((3S 8R,E)-3,8-dihydroxynon-1-en-1-yl)-3-hydroxycyclopentyl)propyl)thiophene-2-carboxylic acid]: the EC50 was determined as 1.4 nM at EP2 [1]; 4520 nM on DP; 363 nM at EP2 [2]; 207 nM at EP1; 222 nM at EP3; 29 nM on EP2 [3]. The results for the EC50 at EP4 [4] and on EP4 [5] were greater than 10000 nM and 455 nM, respectively.
